pIC50: −log10 of the molar value. Starred links: 1 amine or outer side, 2 acyl side, 3 side chain; linkers in the order of their positions; H or OH if unused. Positions of bridges follow the written chain, without caps; N, C: chain ends. Non-standard residues stand in square brackets, D forms with d. Residues, ends and D or L forms follow the SMILES beside them. Groups on a side chain read outwards from the residue. *: point of attachment. Phe(3-OCH2COOH) = N[C@@H](Cc1cccc(OCC(=O)O)c1)C(=O)O; Phe(4-COOH) = N[C@@H](Cc1ccc(C(=O)O)cc1)C(=O)O; Trp(7-aza) = N[C@@H](Cc1c[nH]c2ncccc12)C(=O)O; Piperazinyl(4-CH2COOH) = O=C(O)CN1CCN(*)CC1; Gly(N(CH2)3COOH) = O=C(O)CCCNCC(=O)O; NMe3Pal = CN[C@@H](Cc1cccnc1)C(=O)O; X1 = CCCCCCC[C@H](N[*:1])C(=O)[*:2]; NMeCha = CN[C@@H](CC1CCCCC1)C(=O)O; NMeF = CN[C@@H](Cc1ccccc1)C(=O)O; 4Pal = N[C@@H](Cc1ccncc1)C(=O)O; Cha = N[C@@H](CC1CCCCC1)C(=O)O; hSer = N[C@@H](CCO)C(=O)O; NMeA = CN[C@@H](C)C(=O)O; CO = O=C([*:1])[*:2]; Sar = CNCC(=O)O; Propyl = CCC*; X17 = CCCCC*; nBu = CCCC*

For 11 molecules, IC50 and Selectivity results are on record in patent EP4786487A1, “PEPTIDE” (Peptidream Inc, priority 2023, dated 2025).

Common to all, as to type: cell-based
In test [1] the target is T1, GDF-11 (Homo sapiens, UniProt O95390).
T1 construct: purchased R&D systems 1958-GD-G8/CF
T1 sequence (O95390 299-407): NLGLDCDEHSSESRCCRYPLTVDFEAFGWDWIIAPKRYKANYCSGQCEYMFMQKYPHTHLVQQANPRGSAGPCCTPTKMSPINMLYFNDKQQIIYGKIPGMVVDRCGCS
Nature of the test: Reporter gene assay for myostatin signaling in HepG2 cell line, Evaluation Procedure (1), GDF-11 inhibition. Conditions: Method A: GDF-11 10 ng/mL; read-out: IC50 (Luciferase) GDF-11 HepG2. The essentials: (§1)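 IC50 derived from One-Glo luciferase luminescence after 20–24 h at 37 °C. Peptides titrated 4-fold at 0.006–100 nmol/L against myostatin or 0.12–2000 nmol/L against GDF-11 in HepG2 cells carrying a transfected CAGA12-luciferase reporter, kept in 0.1% BSA EMEM.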
In general terms: Reporter assays use an easily measured gene product as a stand-in for the process of interest.

For test [2], the target named is T2, Myostatin (Homo sapiens, UniProt O14793).
T2 construct: active myostatin (also called mature myostatin) is a homodimer consisting of two C-terminal growth factor domains; purchased R&D systems 788-G8/CF
T2 sequence (O14793 267-375): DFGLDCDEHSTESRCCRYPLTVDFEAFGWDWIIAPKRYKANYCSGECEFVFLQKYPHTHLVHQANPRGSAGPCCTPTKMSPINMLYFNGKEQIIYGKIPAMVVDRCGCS
The test is described as follows: Reporter gene assay for myostatin signaling in HepG2 cell line, Evaluation Procedure (1), myostatin inhibition. Particulars: Method A: Myostatin 10 ng/mL; read-out: IC50 (Luciferase) Myostatin HepG2. A digest of the protocol:
as §1

The subject of test [3] is Myostatin. The description is as above. Conditions: Method A; GDF-11 IC50 versus Myostatin IC50. A digest of the protocol: as §1

For `CCCCCCC[C@@H]1NC(=O)[C@H](Cc2cccnc2)N(C)C(=O)[C@H](CCCNC(=N)N)NC(=O)[C@H](Cc2ccc(C(=O)O)cc2)NC(=O)[C@H](Cc2cccc(OCC(=O)O)c2)NC(=O)CN(C)C(=O)[C@H]([C@@H](C)CC)NC(=O)[C@H](Cc2ccccc2)N(C)C(=O)[C@H](Cc2ccc(O)cc2)NC(=O)[C@H](Cc2c[nH]c3ccccc23)NC(=O)[C@H](C)NC(=O)[C@H](C)NC(=O)CSC[C@H](C(=O)O)NC(=O)[C@H](Cc2ccccc2)N(C)C(=O)[C@H](C)N(C)C1=O` [Myostatin_99_v211] ({CH2CO}-AAWY[NMeF]I[Sar][Phe(3-OCH2COOH)][Phe(4-COOH)]R[NMe3Pal][X1][NMeA][NMeF][dC]-OH; thioether N-15), the pIC50 in test [1] is 6.63; in test [2], 8.96. For the same molecule, the Selectivity in test [3] is recorded as 211.

As to `CCCCCCC[C@@H]1NC(=O)[C@H](Cc2ccccc2)NC(=O)[C@H](CCCNC(=N)N)NC(=O)[C@H](Cc2ccc(C(=O)O)cc2)NC(=O)[C@H](Cc2cccc(OCC(=O)O)c2)NC(=O)CN(C)C(=O)[C@H]([C@@H](C)CC)NC(=O)[C@H](Cc2ccccc2)N(C)C(=O)[C@H](Cc2ccc(O)cc2)NC(=O)[C@H](Cc2c[nH]c3ccccc23)NC(=O)[C@H](C)NC(=O)[C@H](C)NC(=O)CSC[C@H](C(=O)O)NC(=O)[C@H](Cc2ccccc2)N(C)C(=O)[C@H](C)N(C)C1=O` [Myostatin_99_v212] ({CH2CO}-AAWY[NMeF]I[Sar][Phe(3-OCH2COOH)][Phe(4-COOH)]RF[X1][NMeA][NMeF][dC]-OH; thioether N-15), the pIC50 in test [1] is 6.56; in test [2] it was 8.48. For the same molecule, in test [3], the Selectivity is 84.

Turning to `CCCCCCC[C@@H]1NC(=O)[C@H](Cc2ccccc2)N(C)C(=O)[C@H](CCCNC(=N)N)NC(=O)[C@H](Cc2ccc(C(=O)O)cc2)NC(=O)[C@H](Cc2cccc(OCC(=O)O)c2)NC(=O)CN(C)C(=O)[C@H]([C@@H](C)CC)NC(=O)[C@H](Cc2ccccc2)N(C)C(=O)[C@H](Cc2ccc(O)cc2)NC(=O)[C@H](Cc2c[nH]c3ccccc23)NC(=O)[C@H](C)NC(=O)[C@H](C)NC(=O)CSC[C@H](C(=O)O)NC(=O)[C@H](Cc2cccnc2)N(C)C(=O)[C@H](C)N(C)C1=O` [Myostatin_99_v214] ({CH2CO}-AAWY[NMeF]I[Sar][Phe(3-OCH2COOH)][Phe(4-COOH)]R[NMeF][X1][NMeA][NMe3Pal][dC]-OH; thioether N-15), the pIC50 is 5.88 in test [1] and 8.18 in test [2]. This molecule registered a Selectivity in test [3] of 201.

Take `CCCCCCC[C@@H]1NC(=O)[C@H](Cc2ccccc2)N(C)C(=O)[C@H](CCCNC(=N)N)NC(=O)[C@H](Cc2ccc(C(=O)O)cc2)NC(=O)[C@H](Cc2cccc(OCC(=O)O)c2)NC(=O)CN(C)C(=O)[C@H]([C@@H](C)CC)NC(=O)[C@H](Cc2ccccc2)N(C)C(=O)[C@H](Cc2ccc(O)cc2)NC(=O)[C@H](Cc2c[nH]c3ccccc23)NC(=O)[C@H](C)NC(=O)[C@H](C)NC(=O)CSC[C@@H](C(=O)O)NC(=O)[C@H](Cc2ccccc2)N(C)C(=O)[C@H](C)N(C)C1=O` [Myostatin_99_v215] ({CH2CO}-AAWY[NMeF]I[Sar][Phe(3-OCH2COOH)][Phe(4-COOH)]R[NMeF][X1][NMeA][NMeF]C-OH; thioether N-15): the figures for the pIC50 in test [1] and in test [2] were 6.69 and 8.72, respectively. The Selectivity in test [3] is 106.

As to `CCCCCCC[C@@H]1NC(=O)[C@H](Cc2ccccc2)N(C)C(=O)[C@H](CCCNC(=N)N)NC(=O)[C@H](Cc2ccc(C(=O)O)cc2)NC(=O)[C@H](Cc2cccc(OCC(=O)O)c2)NC(=O)CN(C)C(=O)[C@H]([C@@H](C)CC)NC(=O)[C@H](Cc2ccccc2)N(C)C(=O)[C@H](Cc2ccc(O)cc2)NC(=O)[C@H](Cc2c[nH]c3ccccc23)NC(=O)[C@H](C)NC(=O)[C@H](CC(N)=O)NC(=O)CSC[C@H](C(=O)O)NC(=O)[C@H](Cc2ccccc2)N(C)C(=O)[C@H](C)N(C)C1=O` [Myostatin_99_v217] ({CH2CO}-NAWY[NMeF]I[Sar][Phe(3-OCH2COOH)][Phe(4-COOH)]R[NMeF][X1][NMeA][NMeF][dC]-OH; thioether N-15), the negative logarithm of the IC50 (pIC50) was 6.16 in test [1] and 8.52 in test [2]. In addition, the Selectivity in test [3] is listed as 232.

In the case of `CCCCCCC[C@@H]1NC(=O)[C@H](Cc2ccccc2)N(C)C(=O)[C@H](CCCNC(=N)N)NC(=O)[C@H](Cc2ccc(O)cc2)NC(=O)[C@H](Cc2cccc(OCC(=O)O)c2)NC(=O)CN(C)C(=O)[C@H]([C@@H](C)CC)NC(=O)[C@H](Cc2ccccc2)N(C)C(=O)[C@H](Cc2ccc(O)cc2)NC(=O)[C@H](Cc2c[nH]c3ncccc23)NC(=O)[C@@H](CCC(=O)O)NC(=O)[C@H](C)NC(=O)CSC[C@H](C(=O)O)NC(=O)[C@H](Cc2ccccc2)N(C)C(=O)[C@H](C)N(C)C1=O` [Myostatin_99_v219] ({CH2CO}-A[dE][Trp(7-aza)]Y[NMeF]I[Sar][Phe(3-OCH2COOH)]YR[NMeF][X1][NMeA][NMeF][dC]-OH; thioether N-15), the negative logarithm of the IC50 (pIC50) in test [1] was 6.50; in test [2] it was 8.57. In test [3], this molecule had a Selectivity of 116.

For `CCCCCCC[C@@H]1NC(=O)[C@H](Cc2ccccc2)N(C)C(=O)[C@H](CCCNC(=N)N)NC(=O)[C@H](Cc2ccc(C(=O)O)cc2)NC(=O)[C@H](Cc2cccc(OCC(=O)O)c2)NC(=O)CN(C)C(=O)[C@H]([C@@H](C)CC)NC(=O)[C@H](Cc2ccccc2)N(C)C(=O)[C@H](Cc2ccc(O)cc2)NC(=O)[C@H](Cc2c[nH]c3ccccc23)NC(=O)[C@H](C)NC(=O)[C@H](C)NC(=O)CSC[C@H](C(=O)N2CCN(CC(=O)O)CC2)NC(=O)[C@H](Cc2ccccc2)N(C)C(=O)[C@H](C)N(C)C1=O` [Myostatin_99_v221] ({CH2CO}-AAWY[NMeF]I[Sar][Phe(3-OCH2COOH)][Phe(4-COOH)]R[NMeF][X1][NMeA][NMeF][dC]-{Piperazinyl(4-CH2COOH)}; thioether N-15), the pIC50 in test [1] was 7.14; in test [2], 9.05. In test [3], this molecule showed a Selectivity of 80.

Consider `CCCCCOC[C@@H]1NC(=O)[C@H](Cc2ccccc2)N(C)C(=O)[C@H](CCCNC(=N)N)NC(=O)[C@H](Cc2ccc(C(=O)O)cc2)NC(=O)[C@H](Cc2ccncc2)NC(=O)CN(C)C(=O)[C@H]([C@@H](C)CC)NC(=O)[C@H](Cc2ccccc2)N(C)C(=O)[C@H](Cc2ccc(O)cc2)NC(=O)[C@H](Cc2c[nH]c3ccccc23)NC(=O)[C@H](C)NC(=O)CN(CCCC(=O)O)C(=O)CSC[C@H](C(=O)O)NC(=O)[C@H](Cc2ccccc2)N(C)C(=O)[C@H](C)N(C)C1=O` [Myostatin_99_v226] ({CH2CO}-[Gly(N(CH2)3COOH)]AWY[NMeF]I[Sar][4Pal][Phe(4-COOH)]R[NMeF]S(X17)[NMeA][NMeF][dC]-OH; thioether N-15), for which the pIC50 in test [1] is 5.40; in test [2] it was 7.99. In test [3], the Selectivity amounted to 391.

On to `CCCCOCC[C@@H]1NC(=O)[C@H](Cc2ccccc2)N(C)C(=O)[C@H](CCCNC(=N)N)NC(=O)[C@H](Cc2ccc(C(=O)O)cc2)NC(=O)[C@H](Cc2ccncc2)NC(=O)CN(C)C(=O)[C@H]([C@@H](C)CC)NC(=O)[C@H](Cc2ccccc2)N(C)C(=O)[C@H](Cc2ccc(O)cc2)NC(=O)[C@H](Cc2c[nH]c3ccccc23)NC(=O)[C@H](C)NC(=O)CN(CCCC(=O)O)C(=O)CSC[C@H](C(=O)O)NC(=O)[C@H](Cc2ccccc2)N(C)C(=O)[C@H](C)N(C)C1=O` [Myostatin_99_v227] ({CH2CO}-[Gly(N(CH2)3COOH)]AWY[NMeF]I[Sar][4Pal][Phe(4-COOH)]R[NMeF][hSer](nBu)[NMeA][NMeF][dC]-OH; thioether N-15), for which the negative logarithm of the IC50 (pIC50) in test [1] was 6.17; in test [2] it was 7.68. This molecule also had a Selectivity in test [3] of 33.

On to `CCCOCC[C@@H]1NC(=O)[C@H](Cc2ccccc2)N(C)C(=O)[C@H](CCCNC(=N)N)NC(=O)[C@H](Cc2ccc(C(=O)O)cc2)NC(=O)[C@H](Cc2ccncc2)NC(=O)CN(C)C(=O)[C@H]([C@@H](C)CC)NC(=O)[C@H](Cc2ccccc2)N(C)C(=O)[C@H](Cc2ccc(O)cc2)NC(=O)[C@H](Cc2c[nH]c3ccccc23)NC(=O)[C@H](C)NC(=O)CN(CCCC(=O)O)C(=O)CSC[C@H](C(=O)O)NC(=O)[C@H](Cc2ccccc2)N(C)C(=O)[C@H](C)N(C)C1=O` [Myostatin_99_v230] ({CH2CO}-[Gly(N(CH2)3COOH)]AWY[NMeF]I[Sar][4Pal][Phe(4-COOH)]R[NMeF][hSer](Propyl)[NMeA][NMeF][dC]-OH; thioether N-15), for which the pIC50 in test [1] is 5.08; in test [2] it was 7.24. Moreover, in test [3], the Selectivity came to 147.

Consider `CCCCCCC[C@@H]1NC(=O)[C@H](CC2CCCCC2)NC(=O)[C@H](CCCNC(=N)N)NC(=O)[C@H](Cc2ccc(C(=O)O)cc2)NC(=O)[C@H](CCCCNC(=O)N2CCN(CC(=O)O)CC2)NC(=O)[C@H]2CCCN2C(=O)[C@H]([C@@H](C)CC)NC(=O)[C@H](CC2CCCCC2)N(C)C(=O)[C@H](Cc2ccc(O)cc2)NC(=O)[C@H](Cc2c[nH]c3ccccc23)NC(=O)[C@@H](CCC(=O)O)NC(=O)[C@H](C)NC(=O)CSC[C@H](C(=O)N2CCN(CC(=O)O)CC2)NC(=O)[C@H](Cc2ccccc2)N(C)C(=O)[C@H](C)N(C)C1=O` [Myostatin_99_v244] ({CH2CO}-A[dE]WY[NMeCha]I[dP]K([CO-Piperazinyl(4-CH2COOH)])[Phe(4-COOH)]R[Cha][X1][NMeA][NMeF][dC]-{Piperazinyl(4-CH2COOH)}; thioether N-15), for which the pIC50 in test [1] was 4.86; in test [2], 7.75. This molecule yielded a Selectivity in test [3] of 771.

As a reminder, the pIC50 is the IC50 on a negative log10 scale, so that one unit is a factor of ten.
